Assays:
[1] = cited from earlier work
[2] = system: mycobacterium species; settings: 1 to 100 mg once or twice weekly; cited from earlier work
[3] = Clinical trial: pharmacokinetics of rifalazil in plasma after single oral doses; settings: for AUC / CL/F / Cmax / half-life: male, human, in vivo, po; for half-life / K10 / K12 / K21 / V1/F / Vdβ/F: males

CO[C@H]1/C=C/O[C@@]2(C)Oc3c(C)c(O)c4c(=O)c(c5oc6cc(N7CCN(CC(C)C)CC7)cc(O)c6nc-5c4c3C2=O)NC(=O)/C(C)=C\C=C\[C@H](C)[C@H](O)[C@@H](C)[C@@H](O)[C@@H](C)[C@H](OC(C)=O)[C@@H]1C [rifalazil, Rifalazil]
incidence of adverse reactions (headaches, fevers, flu-like symptoms) ([1]; 1 to 100 mg once or twice weekly): reduced, but did not eliminate | adverse reactions ([1]; clinical trials, daily administration, 10 mg per day to 10 g per day): many adverse reactions occurred | efficacy against mycobacterium species [2]: efficacious | AUC ([3]; 2.5 mg): 185 ng·h/mL | CL/F ([3]; 2.5 mg): 3 mL/min/kg | Cmax ([3]; 2.5 mg): 7.9 ng/mL | half-life ([3]; 2.5 mg, Absorption t½, single 2.5 mg oral dose): 0.67 h | half-life ([3]; 2.5 mg, Distribution t½, single 2.5 mg oral dose): 7.3 h | half-life ([3]; 2.5 mg, Elimination t½, single 2.5 mg oral dose): 139 h | AUC ([3]; 50 mg): 1350 ng·h/mL | CL/F ([3]; 50 mg): 8.17 mL/min/kg | Cmax ([3]; 50 mg): 57.3 ng/mL | half-life ([3]; 50 mg, Absorption t½, single 50 mg oral dose): 0.5 h | half-life ([3]; 50 mg, Distribution t½, single 50 mg oral dose): 11.6 h | half-life ([3]; 50 mg, Elimination t½, single 50 mg oral dose): 116 h | K10 ([3]; single 2.5 mg oral dose): 0.045 h⁻¹ | K12 ([3]; single 2.5 mg oral dose): 0.044 h⁻¹ | K21 ([3]; single 2.5 mg oral dose): 0.011 h⁻¹ | V1/F ([3]; single 2.5 mg oral dose): 4.08 L/kg | Vdβ/F ([3]; single 2.5 mg oral dose): 36.0 L/kg | K10 ([3]; single 50 mg oral dose): 0.039 h⁻¹ | K12 ([3]; single 50 mg oral dose): 0.018 h⁻¹ | K21 ([3]; single 50 mg oral dose): 0.009 h⁻¹ | V1/F ([3]; single 50 mg oral dose): 12.7 L/kg | Vdβ/F ([3]; single 50 mg oral dose): 82.4 L/kg

Reference: patent US8097607B2, “Low dose rifalazil compositions” (priority 2002, dated 2012)
